Assay results from ChEMBL document CHEMBL2346544, “Design and synthesis of biotin- or alkyne-conjugated photoaffinity probes for studying the target molecules of PD 404182” (Bioorg Med Chem, 2013).
pEC50: −log10 of the molar value.

test system: Human immunodeficiency virus 1; test: Antiviral activity against HIV1 3B infected in HeLa cells expressing CD4/CCR5/beta-Gal after 48 hrs by MAGI assay; assay type: functional, organism-based; conditions: Human immunodeficiency virus 1, 3B

Structure (SMILES)	pEC50
C#CCOCc1ccc(C(=O)c2ccc(-c3ccc4c(c3)SC(=N)N3CCCN=C43)cc2)cc1	6.19
N=C1Sc2cc(Br)ccc2C2=NCC3(CCN(C(=O)OCc4ccc(C(=O)c5ccc(COC(=O)NCCOCCOCCOCCNC(=O)CCCC[C@@H]6SC[C@@H]7NC(=O)N[C@@H]76)cc5)cc4)CC3)CN12	5.29
N=C1Sc2cc(-c3ccc(C(=O)c4ccc(COC(=O)NCCOCCOCCOCCNC(=O)CCCC[C@@H]5SC[C@@H]6NC(=O)N[C@@H]65)cc4)cc3)ccc2C2=NCCCN12	5.16
